Source: PubChem BioAssay AID1963866 (Molecular Pharmacology Branch, DTP, NCI, 2024)

System: PDC KRAS tumor spheroids with HUVEC/MSC, viability
Test: Anticancer human tumor 349418-098-R-PDC patient-derived lung adenocarcinoma cell line growth inhibition [KRAS2]
Conditions: for IC50: curve of first compound; for viability, T/C: stronger effect = lower value
Source text: Multicellular complex tumor spheroid response to RAS pathway inhibitors in combination with a targeted agents in patient-derived cell lines with oncogenic KRAS variants from multiple cancer types
A high-throughput screen of multi-cell type tumor spheroids was designed to identify active combinations of targeted small molecules and KRAS pathway inhibitors. Complex spheroids include a stromal component modeled by human endothelial cells (HUVEC) and fibroblasts modeled by human mesenchymal stem cells (MSCs). The concentration ranges selected for each drug and investigational agent were based upon clinically achievable concentrations if the clinical Cmax of the agent was known.
Compounds. The drugs and investigational agents: BI-3406 (NSC825286), BAY-293 (NSC824723), batoprotafib (TNO155; NSC825523), sotorasib (AMG 510; NSC818433), MRTX1257 (NSC819558), elimusertib (BAY 1895344; NSC800525), molibresib (GSK525762; NSC774829), temuterkib (LY3214996; NSC803410), venetoclax (NSC766270), alisertib (NSC759677), olaparib (NSC753686), talazoparib (NSC767125), erdafitinib (NSC781556), ipatasertib (NSC767898), cabozantinib (NSC761068), nintedanib (NSC756659), abemaciclib (NSC768073), docetaxel (NSC628503), trametinib (NSC758246), and sapanisertib (NSC764658) were obtained from the National Cancer Institute (NCI) Developmental Therapeutics Program Chemical Repository. The FDA-approved anticancer drug set is available from the Developmental Therapeutics Program. […] The stock solutions were prepared in dimethyl sulfoxide (DMSO, Sigma-Aldrich, St. Louis, MO, cat. D2650) at 800-fold the tested concentration and stored at -70 degrees C prior to their use. All drugs and investigational agents were tested over a range starting from a high concentration at or near the clinical Cmax and decreasing in half-log increments. If the clinical Cmax for an agent had not been determined, the highest concentration tested was 10 microM.
Cell Culture. All cells were maintained in an incubator at 37 degrees C and 5% CO2 with 95% humidity. The PDC lines were cultured according to standard operating procedures established by the NCI PDMR (https://pdmr.cancer.gov/sops/default.htm). Briefly, all PDCs were thawed and cultured in Matrigel-coated flasks prepared with a working solution of 1X Ham's F-12 nutrient mix, without supplementation (Invitrogen, Waltham, MA, cat. 11765054), 100 U/mL penicillin-streptomycin (Invitrogen, cat. 15140122), and 2.5% Matrigel (Corning Inc., Corning, NY, cat. 354248) for the first three passages. All PDCs were cultured in complete DMEM/F-12 media containing advanced DMEM/F-12 (Invitrogen, cat. 12634028), 4.9% defined fetal bovine serum, heat inactivated (HyClone Laboratories Inc., Logan, UT, cat. SH30070.03HI), 389 ng/mL hydrocortisone (Sigma-Aldrich, cat. H4001), 9.7 ng/mL human EGF recombinant protein (Invitrogen, cat. PHG0313), 23.4 microg/mL adenine (Sigma-Aldrich, cat. A2786), 97.3 U/mL penicillin-streptomycin (Invitrogen, cat. 15140122), 1.9 mM L-glutamine (Invitrogen, cat. 25030081), and 9.7 microM Y-27632 dihydrochloride (Tocris Bioscience, Bristol, United Kingdom, cat. 1254). The PDCs were cultured in complete DMEM/F12 media without 9.7 microM Y-27632 dihydrochloride for at least two passages prior to the screen. The established cell line HOP-62 was cultured in RPMI 1640 medium, HEPES (Invitrogen, cat. 22400105) with 10% defined fetal bovine serum (HyClone Laboratories Inc., cat. SH30070.03) and 2 mM L-glutamine (Invitrogen, cat. 25030081). The pooled donor HUVEC were cultured in endothelial cell growth medium 2 (PromoCell, Heidelberg, Germany, cat. C-22011) and the hMSC were cultured in mesenchymal stem cell growth medium 2 (PromoCell, cat. C-28009). For all experiments, HUVEC and hMSC were used at passages </=5, while the malignant cell lines were used at passages </=15. […]

[1] = second compound 0.1 µM, first compound 0.0316 µM
[2] = second compound 0.1 µM, first compound 0.1 µM
[3] = second compound 0.316 µM, first compound 0.0316 µM
[4] = second compound 0.316 µM, first compound 0.1 µM
[5] = second compound 1 µM, first compound 0.0316 µM
[6] = second compound 1 µM, first compound 0.1 µM
[7] = second compound 3.16 µM, first compound 0.0316 µM
[8] = second compound 3.16 µM, first compound 0.1 µM
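Note: spheroids exposed to compounds for seven days before readout.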

In the case of `Cn1ncnc1[C@H]1c2n[nH]c(=O)c3cc(F)cc(c23)N[C@@H]1c1ccc(F)cc1` + C=CC(=O)N1CCN(c2nc(OCC3CCCN3C)nc3c2CCN(c2cccc4cccc(C)c24)C3)CC1CC#N, the IC50 (second compound 0.0316 µM) is reported as greater than 100 nM, the IC50 (second compound 0.1 µM) is reported as greater than 100 nM and the IC50 (second compound 0.316 µM) is reported as greater than 100 nM. For the same molecule, the IC50 (second compound 1 µM) was greater than 100 nM, the IC50 (second compound 3.16 µM) was less than 0.316 nM and the viability, T/C (second compound 0.0316 µM, first compound 0.000316 µM) was 98.3%. The viability, T/C (second compound 0.0316 µM, first compound 0.001 µM) was 93.3%, the viability, T/C (second compound 0.0316 µM, first compound 0.00316 µM) was 84.3% and the viability, T/C (second compound 0.0316 µM, first compound 0.01 µM) was 85.5%. The viability, T/C (second compound 0.0316 µM, first compound 0.0316 µM) was 86.8%, the viability, T/C (second compound 0.0316 µM, first compound 0.1 µM) was 74.9% and the viability, T/C (second compound 0.1 µM, first compound 0.000316 µM) was 93.7%. It also gave a viability, T/C (second compound 0.1 µM, first compound 0.001 µM) of 96.9%, a viability, T/C (second compound 0.1 µM, first compound 0.00316 µM) of 83.6% and a viability, T/C (second compound 0.1 µM, first compound 0.01 µM) of 80.3%. It also gave a viability, T/C [1] of 74.3%, a viability, T/C [2] of 75.9% and a viability, T/C (second compound 0.316 µM, first compound 0.000316 µM) of 94.8%. For the same molecule, the viability, T/C (second compound 0.316 µM, first compound 0.001 µM) was 97.9%, the viability, T/C (second compound 0.316 µM, first compound 0.00316 µM) was 85.7% and the viability, T/C (second compound 0.316 µM, first compound 0.01 µM) was 85.7%. The viability, T/C [3] was 79.2%, the viability, T/C [4] was 68% and the viability, T/C (second compound 1 µM, first compound 0.000316 µM) was 84.4%. For the same molecule, the viability, T/C (second compound 1 µM, first compound 0.001 µM) was 82.8%, the viability, T/C (second compound 1 µM, first compound 0.00316 µM) was 68.6% and the viability, T/C (second compound 1 µM, first compound 0.01 µM) was 75.2%. It also gave a viability, T/C [5] of 70.2%, a viability, T/C [6] of 58.8% and a viability, T/C (second compound 3.16 µM, first compound 0.000316 µM) of 0.16%. It also gave a viability, T/C (second compound 3.16 µM, first compound 0.001 µM) of 0.14%, a viability, T/C (second compound 3.16 µM, first compound 0.00316 µM) of 2.18% and a viability, T/C (second compound 3.16 µM, first compound 0.01 µM) of 1.01%. The viability, T/C [7] was 0.72% and the viability, T/C [8] was 0.18%.
`CC1OCC2(CCN(c3cnc(Sc4ccnc(N)c4Cl)c(N)n3)CC2)C1N` (stereo not given) + CNCc1ccccc1-c1csc(C(C)Nc2nc(C)nc3cc(OC)c(OC)cc23)c1 showed an IC50 (second compound 0.1 µM) greater than 10000 nM, an IC50 (second compound 0.316 µM) greater than 10000 nM and an IC50 (second compound 1 µM) of less than 31.6 nM. It also gave an IC50 (second compound 3.16 µM) of less than 31.6 nM, an IC50 (second compound 10 µM) of less than 31.6 nM and a viability, T/C [1] of 84.7%. For the same molecule, the viability, T/C [2] was 98.9%, the viability, T/C (second compound 0.1 µM, first compound 0.316 µM) was 65% and the viability, T/C (second compound 0.1 µM, first compound 1 µM) was 103%. For the same molecule, the viability, T/C (second compound 0.1 µM, first compound 3.16 µM) was 111%, the viability, T/C (second compound 0.1 µM, first compound 10 µM) was 88.3% and the viability, T/C [3] was 103%. It also gave a viability, T/C [4] of 91.1%, a viability, T/C (second compound 0.316 µM, first compound 0.316 µM) of 109% and a viability, T/C (second compound 0.316 µM, first compound 1 µM) of 88.2%. It also gave a viability, T/C (second compound 0.316 µM, first compound 3.16 µM) of 88.4%, a viability, T/C (second compound 0.316 µM, first compound 10 µM) of 72.9% and a viability, T/C [5] of 42.8%. The viability, T/C [6] was 35.4%, the viability, T/C (second compound 1 µM, first compound 0.316 µM) was 34% and the viability, T/C (second compound 1 µM, first compound 1 µM) was 46.8%. It also gave a viability, T/C (second compound 1 µM, first compound 3.16 µM) of 50.6%, a viability, T/C (second compound 1 µM, first compound 10 µM) of 16.5% and a viability, T/C [7] of 0.05%. The viability, T/C [8] was 0.07%, the viability, T/C (second compound 3.16 µM, first compound 0.316 µM) was 0.06% and the viability, T/C (second compound 3.16 µM, first compound 1 µM) was 0.41%. It also gave a viability, T/C (second compound 3.16 µM, first compound 3.16 µM) of 0.12%, a viability, T/C (second compound 3.16 µM, first compound 10 µM) of 0.17% and a viability, T/C (second compound 10 µM, first compound 0.0316 µM) of 0.06%. It also gave a viability, T/C (second compound 10 µM, first compound 0.1 µM) of 0.07%, a viability, T/C (second compound 10 µM, first compound 0.316 µM) of 0.06% and a viability, T/C (second compound 10 µM, first compound 1 µM) of 0.35%. It also gave a viability, T/C (second compound 10 µM, first compound 3.16 µM) of 0.07% and a viability, T/C (second compound 10 µM, first compound 10 µM) of 0.12%.
